From US20140341895A1, “PSEUDOMONAS AERUGINOSA OprM EPITOPES FOR USE IN DIAGNOSTICS AND THERAPEUTICS” (priority 2011, published 2014)
No end group written: not given here.

How the values were obtained:
[1] = test system: P. aeruginosa strain MSC06120; details: multidrug resistant P. aeruginosa strain MSC06120; stated as normal values; cited from earlier work
[2] = biological target: T1, OprM outer loop 2 (SEQ ID NO:4) (Pseudomonas aeruginosa, UniProt Q51487); experiment: ELISA of immunized rabbit sera, antigen outer loop 2 peptide; assay type: binding; details: antigen SEQ ID NO:4; four rabbits per immunogen; FIG. 1 and 2
T1 construct: made in house; host or cells: chemical peptide synthesis
T1 sequence (Q51487 whole entry, looked up): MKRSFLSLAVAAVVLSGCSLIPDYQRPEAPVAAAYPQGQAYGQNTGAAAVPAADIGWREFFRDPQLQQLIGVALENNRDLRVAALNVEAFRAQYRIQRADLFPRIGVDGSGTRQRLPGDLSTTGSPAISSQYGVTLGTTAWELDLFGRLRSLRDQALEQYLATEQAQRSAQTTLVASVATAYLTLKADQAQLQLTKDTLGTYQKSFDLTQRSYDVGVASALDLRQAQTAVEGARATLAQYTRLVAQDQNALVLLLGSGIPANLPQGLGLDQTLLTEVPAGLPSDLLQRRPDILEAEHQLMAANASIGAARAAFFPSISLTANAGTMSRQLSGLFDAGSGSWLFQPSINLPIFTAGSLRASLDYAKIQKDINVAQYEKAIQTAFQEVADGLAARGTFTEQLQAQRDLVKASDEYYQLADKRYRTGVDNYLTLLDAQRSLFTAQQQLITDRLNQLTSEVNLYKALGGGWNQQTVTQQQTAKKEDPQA
Method: (§1) Sera was assayed by ELISA to measure the amount of anti-OprM antibodies that were induced by the immunization. Purified peptide from either outer loop 1 or outer loop 2 was plated each well of a 96-well plate. A solution of PBS+3% BSA was used for non-specific blocking and sample/control/secondary antibody dilutions. The sample serum was run against a negative control (normal sera) and a positive control (anti-ovalbumin). The signal was detected using HRP conjugated anti-rabbit secondary antibodies and ABTS peroxidase substrate system. The plates were read at a wavelength of 415 nm with a reference at 570 nm.

[3] = biological target: T2, OprM outer loop 1 (SEQ ID NO:3) (Pseudomonas aeruginosa, UniProt Q51487); experiment: ELISA of immunized rabbit sera, antigen outer loop 1 peptide; assay type: binding; details: antigen SEQ ID NO:3; four rabbits per immunogen; FIG. 1 and 2
T2 construct: made in house; host or cells: chemical peptide synthesis
T2 sequence (Q51487 whole entry, looked up): T1 sequence (Q51487 whole entry, looked up)
Method: as §1

OprM outer loops = experiment: rabbit immunization with KLH-conjugated OprM outer loop peptides, sera screened for immune reaction; assay type: in vivo; details: NZW rabbits, 500 μg per injection subcutaneously on days 0, 21, 42, 63, 84, 105; sera screened for immune reaction to OprM outer loops
Method: Polyclonal antibodies were produced using each of the OprM outer loops (with surrounding amino acid residues) conjugated to KLH as immunogens. Rabbits were screened prior to antigen injection for background antibodies that recognize the OprM outer loop immunogens to be used (i.e., SEQ ID NOS:3 and 4). Pre-immune rabbit sera was assayed by ELISA for antibodies to the immunogen.
Eight NZW rabbits were immunized on days 0, 21, 42, 63, 84 and 105 subcutaneously with either KLH-conjugated OprM outer loop 1 (SEQ ID NO:3) or outer loop 2 (SEQ ID NO:4) peptides (500 μg per injection). The Day 0 injection was formulated with Titermax while all subsequent injections were formulated with Freund's incomplete adjuvant. The rabbits were bled on days 52 (5 ml serum obtained), 73 (20 ml serum obtained), 94 (20 ml serum obtained), 115 (20 ml serum obtained) and 118 (50 ml serum obtained).

Row | Molecule | growth inhibitory concentration [1] | antibodies in sera binding to peptide containing outer loop 2 (titer / cross-reactivity), ELISA [2] | antibodies in sera binding to peptide containing outer loop 1 (titer / cross-reactivity), ELISA [3] | immune response in immunized rabbits (OprM outer loops)
1 | NCC[C@H](O)C(=O)N[C@@H]1C[C@H](N)[C@@H](O[C@H]2O[C@H](CN)[C@@H](O)[C@H](O)[C@H]2O)[C@H](O)[C@H]1O[C@H]1O[C@H](CO)[C@@H](O)[C@H](N)[C@H]1O [amikacin] | 64 µg/mL |  |  | 
2 | O=C(O)c1cn(C2CC2)c2cc(N3CCNCC3)c(F)cc2c1=O [ciprofloxacin] | > 256 µg/mL |  |  | 
3 | KLH-conjugated OprM outer loop 1 (SEQ ID NO:3): OprM outer loop 1 peptide with surrounding residues (SEQ ID NO:3), N-terminal CKK added, conjugated to keyhole limpet hemocyanin carrier (CKKRLPGDLSTTGSPA; also: conjugated to KLH carrier, site not given here; listed as Pseudomonas aeruginosa) |  | 1 rabbit showed a small amount of cross-reactivity | high titer | generated an immune response
4 | outer loop 2 (SEQ ID NO:4): OprM outer loop 2 peptide with surrounding residues (SEQ ID NO:4), N-terminal CKK added, conjugated to keyhole limpet hemocyanin carrier (CKKSRQLSGLFDAGSG; also: conjugated to KLH carrier, site not given here; listed as Pseudomonas aeruginosa) |  | high titer | 2 rabbits showed a small amount of cross-reactivity | generated an immune response
